In PMC11149917, “Translational and Therapeutic Evaluation of RAS-GTP Inhibition by RMC-6236 in RAS-Driven Cancers” (Cancer Discovery, 2024):
Values joined by “and” are separate entries in the source; they are usually repeats but may differ in a detail not shown here. Equal values may be shown once.

Assays:
[1] = test system: Dusp6 mRNA in ear skin; assay: In vivo PD by Dusp6 qPCR and PK/PD relationship; set-up: species or system mouse; settings: for % inhibition of DUSP6 vs control: sheet Ear Skin
Procedure: (§1) Tumor-bearing animals were randomized and assigned into groups (n = 1–10/group). The vehicle at 10 mL/kg or RMC-6236 at indicated doses was administered via oral gavage daily, and animals were treated for 28 days, or up to 90 days if PFS was being assessed. […] For single-dose PKPD study, mice were randomized and assigned into groups (n = 3/dose/time point). A single dose of RMC-6236 was administered orally at either 3, 10, or 25 mg/kg. Blood and tissues, including the tumor, brain, colon, ear skin, and muscle, were harvested at indicated time points. Whole blood was collected in K2EDTA Microtainer tubes, incubated for 5 minutes, and snap-frozen in liquid nitrogen. The tissue was either fixed in 10% formalin or snap-frozen in liquid nitrogen for further analysis.
(§2) RNA was extracted from at least 20 mg of tissue using an RNeasy Mini Kit (Qiagen, 74104) and a High-Throughput Tissue grinder following the manufacturer's protocol. Reverse transcription was carried out using High-Capacity cDNA Reverse Transcription Kit (ABI, 4368814) according to the manufacturer's protocol. The cDNA product was used for qPCR analysis using TaqMan Gene-Expression Master Mix (ABI, 4369016). TaqMan primer probes specific to DUSP6 (human—Hs00737962_m1, murine—Mm00518185_m1, FAM-MGB) and 18S (RNA18S1; human—Hs99999901_s1, murine—Mm03928990_g1, FAM-MGB, used as an internal control gene) were used to detect the levels from each sample in duplicates using a 10 µL final reaction volume in a 384-well clear optical reaction plate. For qPCR, Ct values of DUSP6 and 18S were obtained for analysis. DUSP6 Ct value was normalized to 18S, and then the mean relative mRNA expression levels of each group were normalized to the vehicle control group. Values were plotted as relative change in mRNA expression compared with vehicle. Means ± SEM were shown.
(§3) Concentrations of RMC-6236 in tumor or normal tissues and percentage of DUSP6 inhibition as compared with the vehicle control from individual animals were collected and analyzed post a single dose of RMC-6236 ranging from 0.3 to 100 mg/kg (Supplementary Table S6). A 3-parameter sigmoidal exposure–response model was fitted to the data in GraphPad Prism to derive EC50 and EC90 values.

[2] = test system: Dusp6 mRNA in colon; assay: In vivo PD by Dusp6 qPCR and PK/PD relationship; set-up: species or system mouse; settings: for % inhibition of DUSP6 vs control: sheet colon
Procedure: as §1, §2, §3

## CCn1c(-c2cc(N3CCN(C)CC3)cnc2[C@H](C)OC)c2c3cc(ccc31)-c1csc(n1)C[C@H](NC(=O)[C@H]1C[C@@H]1C)C(=O)N1CCC[C@H](N1)C(=O)OCC(C)(C)C2 [RMC-6236]
[1]; Mus musculus, read-out: EC50, inhibition of Dusp6 expression vs RMC-6236 concentration (PK/PD relationship)
  EC50: 1.16 µM
[1]; Mus musculus, read-out: EC90, inhibition of Dusp6 expression vs RMC-6236 concentration (PK/PD relationship)
  EC90: 10.3 µM
[1]; model Capan-2, study Capan-2 #3_PHA 2023, 10 mg/kg, 2h
  % inhibition of DUSP6 vs control: 42.9575% and 52.5293% and 38.4381%
[1]; model Capan-2, study Capan-2 #3_PHA 2023, 10 mg/kg, 4h
  % inhibition of DUSP6 vs control: 58.9598% and 71.2804% and 61.0388%
[1]; model Capan-2, study Capan-2 #3_PHA 2023, 10 mg/kg, 24h
  % inhibition of DUSP6 vs control: 3.733% and 0%
[1]; model Capan-2, study Capan-2 #3_PHA 2023, 10 mg/kg, 48h
  % inhibition of DUSP6 vs control: 6.69% and 0%
[1]; model Capan-2, study Capan-2 #3_PHA 2023, 25 mg/kg, 2h
  % inhibition of DUSP6 vs control: 80.2475% and 68.4632% and 48.9455%
[1]; model Capan-2, study Capan-2 #3_PHA 2023, 25 mg/kg, 4h
  % inhibition of DUSP6 vs control: 91.4616% and 90.6888% and 92.061%
[1]; model Capan-2, study Capan-2 #3_PHA 2023, 25 mg/kg, 8h
  % inhibition of DUSP6 vs control: 84.5561% and 76.0166% and 82.9823%
[1]; model Capan-2, study Capan-2 #3_PHA 2023, 25 mg/kg, 24h
  % inhibition of DUSP6 vs control: 0%
[1]; model Capan-2, study Capan-2 #3_PHA 2023, 25 mg/kg, 48h
  % inhibition of DUSP6 vs control: 0%
[1]; model Capan-2, study Capan-2 #3_PHA 2023, 50 mg/kg, 2h
  % inhibition of DUSP6 vs control: 78.2346% and 81.5063% and 55.09%
[1]; model Capan-2, study Capan-2 #3_PHA 2023, 50 mg/kg, 4h
  % inhibition of DUSP6 vs control: 93.2074% and 87.1476% and 69.7478%
[1]; model Capan-2, study Capan-2 #3_PHA 2023, 50 mg/kg, 8h
  % inhibition of DUSP6 vs control: 88.8886% and 90.1237% and 86.7863%
[1]; model Capan-2, study Capan-2 #3_PHA 2023, 100 mg/kg, 2h
  % inhibition of DUSP6 vs control: 57.6595% and 75.6818% and 80.5868%
[1]; model Capan-2, study Capan-2 #3_PHA 2023, 100 mg/kg, 4h
  % inhibition of DUSP6 vs control: 89.3781% and 78.2346% and 89.488%
[1]; model Capan-2, study Capan-2 #3_PHA 2023, 100 mg/kg, 8h
  % inhibition of DUSP6 vs control: 93.8569% and 95.7308% and 92.061%
[1]; model Capan-2, study Capan-2 #3_PHA 2023, 100 mg/kg, 24h
  % inhibition of DUSP6 vs control: 30.7393% and 61.1736%
[1]; model KP-4, study KP-4 #5, 25 mg/kg, 4h
  % inhibition of DUSP6 vs control: 90.5424% and 91.5353% and 93.5179%
[1]; model KP-4, study KP-4 #5, 25 mg/kg, 8h
  % inhibition of DUSP6 vs control: 80.3499% and 66.4912% and 89.8987%
[1]; skin from tumor-bearing animals
  shift in EC50 and EC90 vs tumor cells of Capan-2, NCI-H441, and HPAC models: ≥ 10 fold
[2]; Mus musculus, colon of tumor-bearing BALB/c nude mice, read-out: EC50, inhibition of Dusp6 expression vs RMC-6236 concentration (PK/PD relationship)
  EC50: 1.71 µM
[2]; Mus musculus, colon of tumor-bearing BALB/c nude mice, read-out: EC90, inhibition of Dusp6 expression vs RMC-6236 concentration (PK/PD relationship)
  EC90: 15.4 µM
[2]; colon from tumor-bearing animals
  shift in EC50 and EC90 vs tumor cells of Capan-2, NCI-H441, and HPAC models: ≥ 10 fold
[2]; Capan-2, Capan-2 #3_PHA 2023, 3 mg/kg, 2h
  % inhibition of DUSP6 vs control: 37.2913% and 60.5871% and 58.0501%
[2]; Capan-2, Capan-2 #3_PHA 2023, 3 mg/kg, 4h
  % inhibition of DUSP6 vs control: 61.1298% and 32.7904% and 59.3384%
[2]; Capan-2, Capan-2 #3_PHA 2023, 3 mg/kg, 8h
  % inhibition of DUSP6 vs control: 84.3228% and 73.9972% and 54.4116%
[2]; Capan-2, Capan-2 #3_PHA 2023, 3 mg/kg, 24h
  % inhibition of DUSP6 vs control: 0%
[2]; Capan-2, Capan-2 #3_PHA 2023, 10 mg/kg, 2h
  % inhibition of DUSP6 vs control: 57.1687% and 58.484% and 80.9648%
[2]; Capan-2, Capan-2 #3_PHA 2023, 10 mg/kg, 4h
  % inhibition of DUSP6 vs control: 72.1309% and 81.8034% and 73.7254%
[2]; Capan-2, Capan-2 #3_PHA 2023, 10 mg/kg, 8h
  % inhibition of DUSP6 vs control: 81.8664% and 78.1343% and 82.9039%
[2]; Capan-2, Capan-2 #3_PHA 2023, 10 mg/kg, 24h
  % inhibition of DUSP6 vs control: 0% and 4.621%
[2]; Capan-2, Capan-2 #3_PHA 2023, 25 mg/kg, 2h
  % inhibition of DUSP6 vs control: 88.2825% and 80.9648% and 65.0894%
[2]; Capan-2, Capan-2 #3_PHA 2023, 25 mg/kg, 4h
  % inhibition of DUSP6 vs control: 67.0868% and 83.3714% and 61.2642%
[2]; Capan-2, Capan-2 #3_PHA 2023, 25 mg/kg, 8h
  % inhibition of DUSP6 vs control: 50.4575% and 35.7513% and 63.8583%
[2]; Capan-2, Capan-2 #3_PHA 2023, 25 mg/kg, 24h
  % inhibition of DUSP6 vs control: 0%
[2]; Capan-2, Capan-2 #3_PHA 2023, 25 mg/kg, 48h
  % inhibition of DUSP6 vs control: 0%
[2]; Capan-2, Capan-2 #3_PHA 2023, 50 mg/kg, 4h
  % inhibition of DUSP6 vs control: 52.3107% and 83.9934% and 66.044%
[2]; Capan-2, Capan-2 #3_PHA 2023, 50 mg/kg, 24h
  % inhibition of DUSP6 vs control: 0%
[2]; Capan-2, Capan-2 #3_PHA 2023, 50 mg/kg, 48h
  % inhibition of DUSP6 vs control: 0%
[2]; Capan-2, Capan-2 #3_PHA 2023, 100 mg/kg, 2h
  % inhibition of DUSP6 vs control: 67.4272% and 86.2096% and 68.6456%
[2]; Capan-2, Capan-2 #3_PHA 2023, 100 mg/kg, 4h
  % inhibition of DUSP6 vs control: 65.0894% and 44.0683% and 74.5323%
[2]; Capan-2, Capan-2 #3_PHA 2023, 100 mg/kg, 8h
  % inhibition of DUSP6 vs control: 70.4396% and 92.2693% and 83.0807%
[2]; Capan-2, Capan-2 #3_PHA 2023, 100 mg/kg, 24h
  % inhibition of DUSP6 vs control: 0%
[2]; Capan-2, Capan-2 #3_PHA 2023, 100 mg/kg, 48h
  % inhibition of DUSP6 vs control: 0%
[2]; KP-4, KP-4 #5, 25 mg/kg, 4h
  % inhibition of DUSP6 vs control: 76.482% and 79.4553% and 90.4818%
[2]; KP-4, KP-4 #5, 25 mg/kg, 8h
  % inhibition of DUSP6 vs control: 84.9604% and 85.3209% and 74.5306%
[2]; KP-4, KP-4 #5, 25 mg/kg, 24h
  % inhibition of DUSP6 vs control: 0%
[2]; KP-4, KP-4 #5, 25 mg/kg, 48h
  % inhibition of DUSP6 vs control: 0%
